Results from US6211154A, “Ketoheterocyclic inhibitors of factor Xa” (COR Therapeutics, Inc., priority 1995, dated 2001).

Experiment: Coagulation parameters (aPTT, PT) in blood samples of the rabbit venous thrombosis model
Assay type: in vivo
Conditions: steady state, mean±SD
From the text: All measurements are an average of all samples after steady state administration of vehicle or (D)--Arg--G|y--Arg--thiazole. Values are expressed as mean±SD.

## NC(N)=NCCCC(N)C(=O)NCC(=O)NC(CCCN=C(N)N)C(=O)c1nccs1 [H-D-Arg-Gly-Arg-thiazole, H--(D)--Arg--Gly--Arg--Thiazole]
50 μg/kg + 1.28 μg/kg/min
  PT fold increase over baseline: 1.00 ± 0.00 fold
75 μg/kg + 1.93 μg/kg/min
  PT fold increase over baseline: 1.00 ± 0.00 fold
100 μg/kg + 2.57 μg/kg/min
  PT fold increase over baseline: 0.83 ± 0.00 fold
